From paper doi:10.1101/2023.04.18.537371v1 (bioRxiv, 2023)
Ends that are not written are not given here.

Experiments:
TLR2 = details: read-out: KD for binding to TLR2; ref 1 (Li et al); cited from earlier work
[1] = Plasma and brain levels in male CD-1 mice after a single IP dose; format: in vivo, CD-1 mouse; details: for Tissue Homogenate Conc / Plasma Conc: male CD-1 mice, IP 10 mg/kg single
[2] = male, CD-1, mouse, brain homogenate, ip, 10 mg/kg
[3] = male, CD-1, mouse, brain, ip, 10 mg/kg
[4] = male, CD-1, mouse, plasma, ip, 10 mg/kg

Which Kd (TLR2) does the source give for “RKDVY [TP5, thymopentin, reference compound] [listing 1 of 2 here]” here?
The Kd was 1570 nM.

For “RKDVY [TP5, thymopentin, reference compound] [listing 2 of 2 here]”, which “Tissue Homogenate Conc” value ([1]; brain homogenate, 0.5 h, animal 2) is on record?
The value was 2.17 ng/mL.

What about the “Tissue Homogenate Conc” value ([1]; brain homogenate, 0.5 h, animal 3) of the same substance?
Its value is 3.18 ng/mL.

And the “Tissue Homogenate Conc” value ([1]; brain homogenate, 1 h, animal 1)?
Its value is 1.69 ng/mL.

What about the “Tissue Homogenate Conc” value ([1]; brain homogenate, 1 h, animal 2) of the same substance?
Its value is 1.78 ng/mL.

What about the “Tissue Homogenate Conc” value ([1]; brain homogenate, 1 h, animal 3) of the same substance?
Its value is 2.20 ng/mL.

What about the “Tissue Homogenate Conc” value ([1]; brain homogenate, 2 h, animal 1) of the same substance?
The value was 1.64 ng/mL.

What about the “Tissue Homogenate Conc” value ([1]; brain homogenate, 2 h, animal 2) of the same substance?
Its value is 1.28 ng/mL.

What about the “Tissue Homogenate Conc” value ([1]; brain homogenate, 2 h, animal 3) of the same substance?
Its value is 1.22 ng/mL.

And the “Tissue Homogenate Conc” value ([1]; brain homogenate, 4 h, animal 1)?
The value was 1.16 ng/mL.

And the “Tissue Homogenate Conc” value ([1]; brain homogenate, 4 h, animal 2)?
The value was 1.03 ng/mL.

And the “Tissue Homogenate Conc” value ([1]; brain homogenate, 4 h, animal 3)?
Its value is 1.08 ng/mL.

And the level at 0.5 h [1, 2]?
Its level at 0.5 h is 2.56 ng/mL.

And the level at 1 h [1, 2]?
Its level at 1 h is 1.89 ng/mL.

What about the level at 2 h [1, 2] of the same substance?
Its level at 2 h is 1.38 ng/mL.

What about the level at 4 h [1, 2] of the same substance?
The level at 4 h was 1.09 ng/mL.

And the tissue level at time at 0.5 h [1, 3]?
Its tissue level at time at 0.5 h is 10.3 ng/g.

And the tissue level at time at 1 h [1, 3]?
The tissue level at time at 1 h was 7.56 ng/g.

And the tissue level at time at 2 h [1, 3]?
Its tissue level at time at 2 h is 5.52 ng/g.

And the tissue level at time at 4 h [1, 3]?
The tissue level at time at 4 h was 4.36 ng/g.

What about the level at 0.5 h [1, 4] of the same substance?
Its level at 0.5 h is 132 ng/mL.

What about the level at 1 h [1, 4] of the same substance?
The level at 1 h was 90.9 ng/mL.

And the level at 2 h [1, 4]?
The level at 2 h was 59.5 ng/mL.

And the level at 4 h [1, 4]?
Its level at 4 h is 49 ng/mL.

And the level at 8 h [1, 4]?
Its level at 8 h is 27.6 ng/mL.

What about the “Plasma Conc” value ([1]; plasma, 0.5 h, animal 1, LC-MS/MS) of the same substance?
Its value is 144 ng/mL.

And the “Plasma Conc” value ([1]; plasma, 0.5 h, animal 2)?
The value was 136 ng/mL.

And the “Plasma Conc” value ([1]; plasma, 0.5 h, animal 3)?
The value was 115 ng/mL.

What about the “Plasma Conc” value ([1]; plasma, 1 h, animal 1) of the same substance?
The value was 80.1 ng/mL.

What about the “Plasma Conc” value ([1]; plasma, 1 h, animal 2) of the same substance?
Its value is 107 ng/mL.

And the “Plasma Conc” value ([1]; plasma, 1 h, animal 3)?
The value was 85.7 ng/mL.

And the “Plasma Conc” value ([1]; plasma, 2 h, animal 1)?
Its value is 56.5 ng/mL.

And the “Plasma Conc” value ([1]; plasma, 2 h, animal 2)?
The value was 67.2 ng/mL.

What about the “Plasma Conc” value ([1]; plasma, 2 h, animal 3) of the same substance?
Its value is 54.8 ng/mL.

And the “Plasma Conc” value ([1]; plasma, 4 h, animal 1)?
The value was 53.4 ng/mL.

What about the “Plasma Conc” value ([1]; plasma, 4 h, animal 2) of the same substance?
Its value is 42.2 ng/mL.

What about the “Plasma Conc” value ([1]; plasma, 4 h, animal 3) of the same substance?
The value was 51.3 ng/mL.

And the “Plasma Conc” value ([1]; plasma, 8 h, animal 1)?
Its value is 28.7 ng/mL.

What about the “Plasma Conc” value ([1]; plasma, 8 h, animal 2) of the same substance?
Its value is 30.6 ng/mL.

And the “Plasma Conc” value ([1]; plasma, 8 h, animal 3)?
Its value is 23.6 ng/mL.
